# Key:
# [1] = Metal-dependent changes of absorbance and fluorescence properties, cell-free; conditions: for fluorescence change by iron treatment in vitro: cell-free, FIG. 1
# Method: (§1) FIG. 1: Metal-dependent changes of p-H8TPPA absorbance and fluorescence properties. • 10 μM p-H8TPPA dilutions were treated with various metal solutions (final concentration 40 μM) before recording (A) absorbance, (B) fluorescence excitation (⋅Em.650 nm) and (C) fluorescence emission (⋅⋅Exc.415 nm) spectra. Data are representative for three independent experiments.
# as §1, with “3:” for “1:”, “m-H8TPPA” for “p-H8TPPA”
# Aiming to use arylphosphonate-tethered porphyrins as real-time cellular metal fluorescence sensors, we first characterized their metal-responsiveness under cell-free conditions. p-H8TPPA (see FIG. 1) and m-H8TPPA (see FIG. 3), were pretreated with various bivalent metal ions at a pH close to the cellular milieu (pH 7.4) before recording absorption and fluorescence spectra. […] Following Co^2+ treatment absorption spectra were less intense, plateau-shaped with a bathochromic broadening up to 434 nm. Hg^2+-treatment red-shifted the Soret band by approximately 30 nm. […] Despite of their restricted fluorescence intensity, the fluorescence emission patterns of all the aforementioned metal-treated arylphosphonate-tethered porphyrins seemed to be […] almost indistinguishable from the buffer-controls (see FIG. 1C, FIGS. 2 and 4). Zn^2+ treatment led to a declined and much more broadened Soret band in the range of 380-430 nm (see FIG. 1A). […] Thus, we assume a fluorescence quenching effect of Zn^2+ that requires further investigation.
# (§2) Absorption spectra were recorded with a Tecan Infinite M200 Reader (Tecan Austria GmbH, Grödig/Salzburg, Switzerland) from 350 to 500 nm. The same device was used in fluorescence mode to measure fluorescence excitation ([…]; ⋅⋅Em. 650 nm) and fluorescence emission (550-850 nm; ⋅⋅Exc. 415 nm) spectra. 3D scanning was performed on a Spark® multimode microplate reader (Tecan Austria GmbH, Grodig/Salzburg, Switzerland) from 350 to 450 nm (Exc.) and 555 to 850 nm (Em.) with a 5 nm step size, excitation and emission bandwidths of 5 nm, and a detector gain of 100. A typical reaction mix was made by combining equal volumes of 20 μM phosphonate porphyrins diluted in assay-buffer (50 mM HEPES in bidistilled water adjusted to […] with sodium hydroxide solution; depleted of multivalent cations with Chelex® 100 Resin pretreatment^51) and a double-concentrated metal cation solution. Following 30 min incubations at 37° C. absorption or fluorescence measurements were done. For redox conversion tests the CuSO4 solutions were pretreated with 500 μM of L-ascorbic acid before admixing into the phosphonate porphyrin dilutions. To evaluate the effect of metal chelators, the metal cation-treated incubation mixtures were posttreated with 50 equivalents of EDTA or EGTA for 15 min before fluorescence emission readout.
# [2] = Fluorescence titration with metal cations; conditions: for half maximal effective concentration for fluorescence silencing, copper versus other metal cations: 10 μM probe, Exc/Em 416 nm/650 nm; for fluorescence upon treatment with Cu^2+: 40 μM Cu^2+ (CuSO4), probe 10 μM
# Method: FIG. 6: Fluorescence titration of p-H8THPPA and m-H8TPPA with metal cations. • 10 μM p-H8TPPA or m-H8TPPA solutions were treated with increasing quantities of metal cations followed by detection of fluorescence emission (⋅Exc/Em.416 nm/650 nm). Data are means±S.E.M. of at least n=3 independent experiments. Sigmoidal dose—response curves were fitted by non-linear regression and the resulting EC50 values are indicated.
# FIG. 7: Fluorescence titration of p-H8THPPA and m-H8TPPA upon addition of metal cations • 10 μM p-H8TPPA or […] were treated with increasing quantities of metal cations followed by detection of fluorescence emission (⋅Exe/Em.416 nm/650 nm). Data are means+S.E.M. of at least n=3 independent experiments. Sigmoidal dose—response curves were fitted by non-linear regression and the resulting EC50 values are indicated.
# as §2
# [3] = Reversibility of metal complexation upon addition of EDTA or EGTA; conditions: 50 equivalents
# Method: FIG. 9: Reversibility of p-H8THPPA and m-H8TPPA metal complexation. • Fluorescence of metal cation pretreated p-H8THPPA or m-H8TPPA solutions upon addition of 50 equivalents of EDTA or EGTA (⋅⋅Exc/Em.416 nm/650 nm). Data are means±S.E.M. of n=3 independent experiments. Statistically significant differences from buffer incubation (***p<0.001; two-way ANOVA/ Tukey post hoc test) or from metal cation treatment (##p<0.01; ###p<0.001; two-way ANOVA/Tukey post hoc test) are indicated.
# as §2
# [4] = Effect of Cu-redox conversion on fluorescence; conditions: 10 μM CuSO4 +/- 500 μM L-ascorbic acid
# Method: FIG. 10: Effect of Cu-redox conversion on p-H8THPPA and m-H8TPPA fluorescence properties • 10 μM CuSO4 solutions pretreated +/−500 μM of l-ascorbic acid (15 min) were mixed with p-H8-TPPA or m-H8TPPA followed by detection of fluorescence emission (⋅⋅Exc/Em.416 nm/650 nm). Data are means+S.E.M. of n=3 independent experiments. Statistically significant differences from control ***p<0.001; two-way ANOVA/Tukey post hoc test) or from Cu^2+ alone (#p<0.05; two-way ANOVA/Tukey post hoc test) are indicated.
# Absorption spectra were recorded with a Tecan Infinite M200 Reader (Tecan Austria GmbH, Grödig/Salzburg, Switzerland) from 350 to 500 nm. The same device was used in fluorescence mode to measure fluorescence excitation ([…]; ⋅⋅Em. 650 nm) and fluorescence emission (550-850 nm; ⋅⋅Exc. 415 nm) spectra. 3D scanning was performed on a Spark® multimode microplate reader (Tecan Austria GmbH, Grodig/Salzburg, Switzerland) from 350 to 450 nm (Exc.) and 555 to 850 nm (Em.) with a 5 nm step size, excitation and emission bandwidths of 5 nm, and a detector gain of 100. […] Following 30 min incubations at 37° C. absorption or fluorescence measurements were done. […] To evaluate the effect of metal chelators, the metal cation-treated incubation mixtures were posttreated with 50 equivalents of EDTA or EGTA for 15 min before fluorescence emission readout.
# Caco-2 cells [5] = test: Fluorescence labeling of Caco-2 enterocytes (emission spectra, confocal imaging); format: cell-based, human; conditions: for passage of the cellular membrane / cellular uptake: Caco-2 cells, fluorescence spectra and confocal imaging
# Method: FIG. 2: Caco-2 fluorescence labeling with Phenylphosphonate-substituted porphyrines. • Caco-2 cells were incubated with increasing concentrations of p-H8TPPA or m-H8TPPA followed by fluorescence measurement (⋅Exc/Em.416 nm/650 nm). Data are means±S.E.M. of n=3 independent experiments.
# FIG. 5: Fluorescence labeling of Caco-2 enterocytes by phenylphosphonate-substituted porphyrines. • Fluorescence emission spectra of Caco-2 cells exposed to p-H8TPPA, m-H8TPPA (A) or the isopropyl-modified phosphonate p-H8TPPA-iPr8 (C) in comparison with each of the phenylphosphonate porphyrins as 10 μM dilution in assay buffer (⋅Exc416 nm). (B) Confocal images of Caco-2 upon loading with p-H8TPPA or m-H8TPPA. (D) Confocal images of p-H8TPPA-iPr8 in the presence or absence of Caco-2 cells. Scale bar=10 μm. Data are representative for three independent experiments.
# (§3) The human intestinal cell line Caco-2 (European Collection of Cell Cultures, Porton Down, UK) were routinely cultured at 37° C., 5% CO2 and humidified atmosphere in Dulbecco's Modified Eagles Medium (DMEM), containing 10% fetal calf serum (FCS) 100 U/mL penicillin and 100 μg/ml streptomycin. For cellular phosphonate porphyrins experiments, Caco-2 cells were transferred into 96 wells (initially seeding 5000 cells per well) and cultured for 14 days for differentiation into an enterocyte-like monolayer^53,54. For phosphonate labeling, differentiated cells were treated with either m-H8TPPA, p-H8TPPA or p-H8TPPA-iPr8 in a HEPES-based incubation buffer (10 mM HEPES, pH 7.35, 120 mM NaCl, 5.4 mM KCl, 5 mM glucose, 1.3 mM CaCl2, 1 mM MgCl2, 1 mM NaH2PO4, 0.3% bovine serum albumin) for […] Excess fluorescent dye was removed by multiple washing steps before fluorescence emission scanning using 416 nm excitation (Tecan Infinite M200 reader; Tecan, Grödig/Salzburg, […]). To analyze metal responsiveness of the intracellular phosphonate porphyrins, cells were post-treated with 50 μM of different metal solutions at 37° C. in an albumin-free incubation buffer in a time-course experiment.
# Fluorescence images of phosphonate porphyrin-labeled Caco-2 enterocytes were acquired on a Leica TCS SP8 laser scanning confocal microscope equipped with LAS X 3.5.5.19976 software platform, using a HC PL APO CS2 63×/1.20 water objective. The filters settings were[…]Exc488 nm/[…]Em580 nm; pinhole 111.5 μm, pinhole size 1 AU.
# Caco-2 cells [6] = test: Live-cell sensing of metal uptake into Caco-2 enterocytes; format: cell-based, human; conditions: for intracellular probe fluorescence upon extracellular FeSO4: 50 μM FeSO4, Caco-2 cells; for intracellular probe fluorescence upon Cu-exposure / intracellular probe response to incoming Cd^2+, Cu^2+, Hg^2+, Mn^2+, Pb^2+ and Zn^2+: 50 μM, Caco-2 cells
# Method: FIG. 11: Live-cell sensing of metal uptake into Caco-2 enterocytes with p-H8THPPA and m-H8TPPA. • Caco-2 cells were loaded with p-H8THPPA or m-H8TPPA and the fluorescence recorded in 3 min intervals (⋅⋅Exc/Em.416 nm/650 nm). Fifteen minutes after the start of the experiment (arrow), metal cation solutions (final concentration 50 μM) or buffer (control) were added and the fluorescence measurement continued. Data are means±S.E.M. of n=3 independent experiments.
# FIG. 12 Summary of cellular p-H8TPPA and m-H8TPPA metal responsiveness. • Data were taken from the last fluorescence readout shown in FIG. 11. Data are means+S.E.M. of n=3 independent experiments. Significant differences from buffer incubation ***p<0.001; **p<0.01; *p<0.05; one-way ANOVA/Dunnett's multiple comparison test.
# as §3
# [7] = Metal-dependent changes of absorbance and fluorescence properties, cell-free; conditions: for new absorbance band peak after Cd^2+ treatment: decline of 416 nm maximum; for Soret peak of visible absorption: buffer-control treatment, pH 7.4, 10 μM probe
# [8] = Solubility in aqueous media with detergent pluronic; format: physicochemical; conditions: pluronic F-127
# [9] = 10 μM probe, 40 μM metal, pH 7.4
SMILES,"fluorescence change on binding of free divalent Cu, Zn, Pb, Hg, Cd, Co and Mn ions [1]","fluorescence change on binding of free divalent Fe, Mg and Ca ions [1]",fluorescence change by iron treatment in vitro [1],"half maximal effective concentration for fluorescence silencing, copper versus other metal cations [2]",fluorescence upon treatment with Cu^2+ [2],response of Zn^2+ and Hg^2+ quenching to metal chelator posttreatment [3],response of copper-induced fluorescence decrease to metal chelator posttreatment [3],fluorescence response to Cu^2+ and Cu^+ [4],passage of the cellular membrane / cellular uptake (Caco-2 cells [5]),intracellular probe fluorescence upon extracellular FeSO4 (Caco-2 cells [6]),intracellular probe fluorescence upon Cu-exposure (Caco-2 cells [6]),"intracellular probe response to incoming Cd^2+, Cu^2+, Hg^2+, Mn^2+, Pb^2+ and Zn^2+ (Caco-2 cells [6])","fluorescence change upon Ca^2+ or Mg^2+ treatment [7, 9]","fluorescence change upon Mn^2+ and (far more pronounced) Pb^2+ treatment [7, 9]","red-shift of the Soret band after Hg^2+ treatment [7, 9]","new absorbance band peak after Cd^2+ treatment [7, 9] [nm]",Soret peak of visible absorption [7],further results
"O=P(O)(O)c1cccc(-c2c3nc(c(-c4cccc(P(=O)(O)O)c4)c4ccc([nH]4)c(-c4cccc(P(=O)(O)O)c4)c4nc(c(-c5cccc(P(=O)(O)O)c5)c5ccc2[nH]5)C=C4)C=C3)c1 [m-H8TPPA, 5,10,15,20-tetrakis [m-phenylphosphonic acid] porphyrin]",fluorescent decrease,fluorescent increase,slightly enhanced,considerably lower for copper,almost complete abrogation,quenching was reversed,almost non-responsive,Quenching,pass the cellular membrane,remained stable,strong and rapid decline,fluorescence silencing,higher fluorescence,dropped markedly,approximately 30 nm,434,around 416 nm,
"O=P(O)(O)c1ccc(-c2c3nc(c(-c4ccc(P(=O)(O)O)cc4)c4ccc([nH]4)c(-c4ccc(P(=O)(O)O)cc4)c4nc(c(-c5ccc(P(=O)(O)O)cc5)c5ccc2[nH]5)C=C4)C=C3)cc1 [p-H8TPPA, 5,10,15,20-Tetrakis [p-phenylphosphonic acid] porphyrin]",fluorescent decrease,fluorescent increase,slightly enhanced,considerably lower for copper,almost complete abrogation,quenching was reversed,almost non-responsive,Quenching,pass the cellular membrane,remained stable,strong and rapid decline,fluorescence silencing,higher fluorescence,dropped markedly,approximately 30 nm,434,around 416 nm,"fluorescence emission after Zn^2+ treatment relative to excitation properties ([7]; 10 μM probe, 40 μM metal, pH 7.4, FIG. 1): much lower than what would have been expected"
"CC(C)OP(=O)(OC(C)C)c1ccc(-c2c3nc(c(-c4ccc(P(=O)(OC(C)C)OC(C)C)cc4)c4ccc([nH]4)c(-c4ccc(P(=O)(OC(C)C)OC(C)C)cc4)c4nc(c(-c5ccc(P(=O)(OC(C)C)OC(C)C)cc5)c5ccc2[nH]5)C=C4)C=C3)cc1 [p-H8TPPA-iPr8, 5,10,15,20-tetrakis[p-(diisopropoxyphosphoryl)phenyl] porphyrin]",,,,,,,,,inaccessible for cellular uptake,,,,,,,,,"fluorescence change upon metal binding ([1]; isopropyl diester, phosphonate blocked for metal binding): no fluorescence change; microcrystal size in confocal microscopy pictures (Caco-2 cells [5]; incubation buffer, with or without Caco-2 cells): ~20 μm; effect of detergent pluronic on solubility in aqueous media [8]: did not improve the solubility"

# Reference: patent publication US20240142458A1, “FLUORESCENT PROBES FOR QUANTIFICATION OF FREE COPPER” (TECHNISCHE UNIVERSITÄT BERLIN, priority 2020, published 2024)
